The record followed here is paper PMC9687798, “Atypical Substrates of the Organic Cation Transporter 1” (Biomolecules, 2022).

Each structure is given as a SMILES string. Positions count from the first letter of the chain named. Entries after “also recorded” stand apart in the source; their conditions may differ.

The target in one data set is T1, wild-type human OCT2 (Homo sapiens, UniProt O15244).
T1 sequence (O15244 1-555): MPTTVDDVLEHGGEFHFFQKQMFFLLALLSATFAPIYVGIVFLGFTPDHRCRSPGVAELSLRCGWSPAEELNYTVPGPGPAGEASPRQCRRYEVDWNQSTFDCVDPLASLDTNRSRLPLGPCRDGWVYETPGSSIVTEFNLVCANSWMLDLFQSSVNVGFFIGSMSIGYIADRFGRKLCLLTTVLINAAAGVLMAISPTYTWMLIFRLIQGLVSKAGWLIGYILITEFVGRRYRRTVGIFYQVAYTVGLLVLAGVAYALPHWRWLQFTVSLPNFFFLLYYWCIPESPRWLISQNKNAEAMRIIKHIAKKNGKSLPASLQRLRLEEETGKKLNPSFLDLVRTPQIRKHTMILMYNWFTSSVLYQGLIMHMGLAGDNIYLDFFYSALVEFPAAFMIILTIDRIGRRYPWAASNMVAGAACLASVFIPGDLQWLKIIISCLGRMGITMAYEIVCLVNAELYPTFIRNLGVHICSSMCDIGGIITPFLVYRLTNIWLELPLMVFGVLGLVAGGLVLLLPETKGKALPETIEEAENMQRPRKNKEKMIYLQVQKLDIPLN
Description: Cellular uptake ratio, OCT2-overexpressing HEK293 cells vs empty vector. Format: cell-based. Particulars: based on ratio uptake data at 1 µM. As to the method:
(§1) The wild-type cell lines of OCT1 and OCT2, as well as the variant cell lines OCT1*2 and *3, were generated using the Flp-In system (Thermo Fisher Scientific, Darmstadt, Germany) as described in previous publications. The cell line overexpressing OCT3 was a kind gift from Dr. Koepsell and Dr. Gorbulev (University of Würzburg, Germany). Cells transfected with the empty pcDNA5/FRT vector were used for the transport experiments as a control cell line. All cells were cultured approximately up to passage 30.
(§2) Forty-eight hours before the transport experiments, 600,000 cells were plated on 12-well plates pre-coated with poly-D-lysine and incubated at 37 °C with 5% CO2. The prepared 12-well plate with cells was positioned on a heating plate pre-warmed to 37 °C. After removing the medium, the cells were washed with 37 °C HBSS+ (10 mM HEPES in Hank’s balanced salt solution, pH 7.4). Then, one pre-defined concentration of a substrate was added to each well. The incubation period was stopped by adding 2 mL of 4 °C HBSS+ and removing the cells from the heating plate. The cells were washed twice with 4 °C HBSS+. For cell lysis, the cells were incubated for 15 min with 500 µL of 80% acetonitrile (LGC Standards, Wesel, Germany), which contained a respective internal standard (Table 1).
(§3) For concentration-dependent transport, the cells were incubated with defined substrate concentrations (0.1, 1, 10, 30, 100, 300, 600, 1000 µM) for the respective pre-defined incubation times. […] The uptake by a transporter was normalised to the uptake by empty vector-transfected cells. […] The results of transport experiments were normalized to the total protein concentration per well. Total protein quantification was performed using a bicinchoninic acid assay with bovine serum albumin as standard.
(§4) The ratios of cellular uptake were calculated by dividing the total uptake of transporter-overexpressing cells by the total uptake into empty vector transfected cells. The concentration-dependent cellular net uptake was used for analysis of transport kinetics by subtracting for each substrate concentration the uptake of empty vector-transfected cells from the uptake of transporter-overexpressing cells. […] The intrinsic clearance Clint was expressed with the ratio of Vmax and KM.

The target in data set [1] is T2, human OCT1*1 (wild-type) (Homo sapiens, UniProt O15245).
T2 sequence (O15245 1-554): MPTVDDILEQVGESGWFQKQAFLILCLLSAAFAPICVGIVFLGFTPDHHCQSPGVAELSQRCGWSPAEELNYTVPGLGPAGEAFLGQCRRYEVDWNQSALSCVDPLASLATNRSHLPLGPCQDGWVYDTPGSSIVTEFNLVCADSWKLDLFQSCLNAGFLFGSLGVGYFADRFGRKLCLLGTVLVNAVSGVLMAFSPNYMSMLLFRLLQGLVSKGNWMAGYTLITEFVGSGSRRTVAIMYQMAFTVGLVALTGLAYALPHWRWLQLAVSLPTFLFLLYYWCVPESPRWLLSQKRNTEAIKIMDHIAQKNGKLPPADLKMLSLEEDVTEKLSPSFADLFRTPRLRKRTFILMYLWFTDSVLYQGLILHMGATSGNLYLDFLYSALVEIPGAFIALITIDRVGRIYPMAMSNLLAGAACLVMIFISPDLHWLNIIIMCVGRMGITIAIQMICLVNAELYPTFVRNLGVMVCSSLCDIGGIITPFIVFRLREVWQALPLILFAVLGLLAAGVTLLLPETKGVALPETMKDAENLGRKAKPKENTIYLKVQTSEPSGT
Briefly: Concentration-dependent uptake (transport kinetics) in HEK293 cells overexpressing OCT1 wild-type. Particulars: for Clint (±SEM): intrinsic clearance = ratio of Vmax and KM, OCT1 wild-type.

The target of data set [2] is T2, human OCT1*1 (wild-type). Description: Cellular uptake ratio, OCT1-overexpressing HEK293 cells vs empty vector. The class given is cell-based. Particulars: based on ratio uptake data at 1 µM. As to the method: as §1, §2, §3, §4
The target in a further data set is T3, OCT3 (Homo sapiens, UniProt O75751).
T3 construct: expressed in transfected cells; host or cells: HEK293, stably transfected; gift from Dr. Koepsell and Dr. Gorbulev (University of Würzburg)
T3 sequence (O75751 1-556): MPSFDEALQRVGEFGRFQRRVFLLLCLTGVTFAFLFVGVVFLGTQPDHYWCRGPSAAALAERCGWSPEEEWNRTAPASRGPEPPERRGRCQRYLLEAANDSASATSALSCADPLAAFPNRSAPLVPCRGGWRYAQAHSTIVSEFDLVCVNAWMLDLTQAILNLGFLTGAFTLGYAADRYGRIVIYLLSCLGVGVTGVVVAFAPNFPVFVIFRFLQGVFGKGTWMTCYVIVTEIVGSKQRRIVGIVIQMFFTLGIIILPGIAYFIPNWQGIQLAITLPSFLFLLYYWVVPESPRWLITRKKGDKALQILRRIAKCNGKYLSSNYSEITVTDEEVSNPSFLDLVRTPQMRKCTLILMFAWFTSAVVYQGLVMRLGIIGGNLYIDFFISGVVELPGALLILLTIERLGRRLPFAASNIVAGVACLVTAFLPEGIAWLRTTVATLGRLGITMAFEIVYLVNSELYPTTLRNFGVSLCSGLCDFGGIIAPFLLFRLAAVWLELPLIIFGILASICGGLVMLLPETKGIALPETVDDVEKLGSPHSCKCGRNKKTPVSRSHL
Description: Cellular uptake ratio, OCT3-overexpressing HEK293 cells vs empty vector. The class given is cell-based. Particulars: based on ratio uptake data at 1 µM. As to the method: as §1, §2, §3, §4

Data set [3] can be described thus: Concentration-dependent uptake into empty vector-transfected HEK293 cells. Format: cell-based, human. To be noted: human, empty vector (pcDNA5/FRT)-transfected HEK293 cells, pH 7.4; empty vector-transfected HEK cells; read-out: intrinsic clearance. The procedure: as §1, with “The transport experiments were performed using HEK293 cells that overexpress human OCT1*1 (wild-type), mutant human OCT1 D474N, variant human OCT1*2 (M420del) and OCT1*3 (R61C), wild-type human OCT2, and OCT3 after stable transfection. The wild-type” for “The wild-type”
as §2
(§5) For time-dependent transport, the cells were incubated with 1 µM of the substance for 15 to 240 s to determine the linear uptake range ≥ 15 s. For concentration-dependent transport, the cells were incubated with defined substrate concentrations (0.1, 1, 10, 30, 100, 300, 600, 1000 µM) for the respective pre-defined incubation times. […]; 100 µM) and pre-defined incubation times. The uptake by a transporter was normalised to the uptake by empty vector-transfected cells. […] The results of transport experiments were normalized to the total protein concentration per well. Total protein quantification was performed using a bicinchoninic acid assay with bovine serum albumin as standard.
(§6) The ratios of cellular uptake were calculated by dividing the total uptake of transporter-overexpressing cells by the total uptake into empty vector transfected cells. The concentration-dependent cellular net uptake was used for analysis of transport kinetics by subtracting for each substrate concentration the uptake of empty vector-transfected cells from the uptake of transporter-overexpressing cells. The transport kinetic parameters Vmax and KM were determined with non-linear regression by using the Michaelis–Menten equation for net uptake data and by using the Michaelis–Menten equation extended with a linear term for total uptake data (GraphPad Prism 5.01, GraphPad software, LA Jolla, CA, USA). The intrinsic clearance Clint was expressed with the ratio of Vmax and KM.

Data set [4] deals with empty vector-transfected HEK cells. The description is as above. The class given is cell-based, human. Particulars: uptake into empty vector-transfected cells. As to the method: as §1, with “The transport experiments were performed using HEK293 cells that overexpress human OCT1*1 (wild-type), mutant human OCT1 D474N, variant human OCT1*2 (M420del) and OCT1*3 (R61C), wild-type human OCT2, and OCT3 after stable transfection. The wild-type” for “The wild-type”
as §2, §5, §6

Another data set deals with T4, mutant human OCT1 D474N (Homo sapiens, UniProt O15245, D474N).
T4 construct: expressed in transfected cells
T4 sequence (O15245 1-554 D474N): T2 sequence (O15245 1-554) with D474N
Briefly: Cellular uptake by HEK293 cells overexpressing variant OCT1 D474N. The class given is cell-based. To be noted: p < 0.01.

The next data set deals with T5, OCT1*3 (R61C) (Homo sapiens, UniProt O15245, R61C).
T5 construct: expressed in transfected cells
T5 sequence (O15245 1-554 R61C): T2 sequence (O15245 1-554) with R61C
Briefly: Cellular uptake by HEK293 cells overexpressing OCT1*3. Format: cell-based. Particulars: 1 µM substance. The procedure:
as §1, with “The transport experiments were performed using HEK293 cells that overexpress human OCT1*1 (wild-type), mutant human OCT1 D474N, variant human OCT1*2 (M420del) and OCT1*3 (R61C), wild-type human OCT2, and OCT3 after stable transfection. The wild-type” for “The wild-type”
as §2, §5, §6

As to `C[C@](N)(Cc1ccc(O)c(O)c1)C(=O)O` [Methyldopa, L-(–)-α-methyldopa], at wild-type human OCT2, the OCT2 transport category is 0 (no transport by OCT1, OCT2, and OCT3 occurred (i.e., no kinetic parameters or uptake ratio <2 without significance)). In addition, the “Clint (±SEM)” value at human OCT1*1 (wild-type) [1] was 5.94 ± 4.63 µL/mg Protein/min. In addition, the “Clint (±SEM)” value at human OCT1*1 (wild-type) [1] (listed as methyldopa) is listed as 5.94 µL/mg Protein/min. Further, on human OCT1*1 (wild-type) [2], the OCT1 transport category result is reported as “+/− (poor transport with a Clint < 5 or ratio between 1–2 with statistical significance (p < 0.05))”. In addition, the OCT3 transport category at OCT3 was 0 (no transport by OCT1, OCT2, and OCT3 occurred (i.e., no kinetic parameters or uptake ratio <2 without significance)). Moreover, the microsomal CLint in data set [3] was 15.1 µL/min/mg. In data set [4], the Km amounted to 32.2 µM and the Vmax is reported as 488 pmol/mg protein/min.
In the case of `C[N+](C)(C)[C@@H](Cc1c[nH]c2ccccc12)C(=O)[O-]` [Hypaphorine, hypaphorine], the OCT2 transport category on wild-type human OCT2 was 0 (no transport by OCT1, OCT2, and OCT3 occurred (i.e., no kinetic parameters or uptake ratio <2 without significance)). Further, on human OCT1*1 (wild-type) [1] (good >5, poor 1–5, non-substrate <1 µL/mg protein/min or uptake not above empty vector), the “OCT1 substrate classification from concentration-dependent uptake” value is “linear increase in total uptake of both cell lines”. Further, the OCT1 transport category on human OCT1*1 (wild-type) [2] is 0 (no transport by OCT1, OCT2, and OCT3 occurred (i.e., no kinetic parameters or uptake ratio <2 without significance)). For the same compound, at OCT3, the OCT3 transport category is 0 (no transport by OCT1, OCT2, and OCT3 occurred (i.e., no kinetic parameters or uptake ratio <2 without significance)). Moreover, the “enhancement of uptake by OCT1 D474N compared to wild-type” value at mutant human OCT1 D474N is on record as “two-fold enhancement; also recorded: significantly increased uptake by the variant OCT1 D474N”.
On to `Nc1ccn([C@@H]2CS[C@H](CO)O2)c(=O)n1` [Lamivudine, lamivudine], for which the “uptake by OCT1*3 in comparison to OCT1*1” value at OCT1*3 (R61C) is “reduction in uptake”. Besides, at OCT3, the OCT3 transport category is 0 (no transport by OCT1, OCT2, and OCT3 occurred (i.e., no kinetic parameters or uptake ratio <2 without significance)).
